Measured values reported in publication PMC7461568, “Novel Cyclic Lipopeptide Antibiotics: Effects of Acyl Chain Length and Position” (International Journal of Molecular Sciences, 2020).
Values after ≈ are worked out from the molar mass of the structure shown. Where a SMILES comes first, the peptide text is derived from it. [ ]: non-standard residue; d: D form. The star is where a group is joined. 2Nal = N[C@@H](Cc1ccc2ccccc2c1)C(=O)O; Octanoyl = CCCCCCCC(=O)*; Dab = NCC[C@H](N)C(=O)O; AEEA = NCCOCCOCC(=O)O

What was measured:
A. baumannii ATCC 19606 = assay type: cell-based, Acinetobacter baumannii; settings: MHB-II, inoculum 5 × 10^5 CFU/mL, 37 °C, 18–24 h, visual read-out, triplicate
Method: In the original report on S3(B), MIC experiments were carried out by using non-cation-adjusted MHB-I media. To this, bovine serum albumin (BSA) and acetic acid were added. The rationale for choosing a medium without cations is that cation-adjusted media (MHB-II) in some cases causes substantial inhibition of the activity of cationic peptides. Furthermore, some peptides are at risk of precipitation when diluted into MHB medium, which can be avoided via the addition of BSA and acetic acid. However, the use of MHB-II is favorable to imitate the in vivo conditions as much as possible. Both media were tested with and without the addition of BSA and acetic acid by trial and error. […]
Cation-adjusted Mueller-Hinton broth (MHB-II) media (BD BBLTM Beef extract powder, BD BactoTMCasamino acids, and DIFCO soluble starch was from Becton, Dickinson and Company©, Franklin Lakes, NJ, USA). […] A VersaMaxTM Tunable Microplate Reader (Molecular Devices LLC, Sunnyvale, CA, USA) was used and the data were evaluated on a Softmax® Pro (Molecular Devices LLC).
The MIC experiments were performed according to a protocol adapted from Wiegand et al., with minor modifications. The MICs were determined in triplicate. […] The MIC values were visually evaluated, and the MIC was set to the lowest concentration […] based on triplicate measurements. […]

K. pneumonia ATCC 13883 = assay type: cell-based, Klebsiella pneumoniae; settings: K. pneumoniae ATCC 13883; MHB-II, inoculum 5 × 10^5 CFU/mL, 37 °C, 18–24 h, visual read-out, triplicate
Method: In the original report on S3(B), MIC experiments were carried out by using non-cation-adjusted MHB-I media. To this, bovine serum albumin (BSA) and acetic acid were added. The rationale for choosing a medium without cations is that cation-adjusted media (MHB-II) in some cases causes substantial inhibition of the activity of cationic peptides. Furthermore, some peptides are at risk of precipitation when diluted into MHB medium, which can be avoided via the addition of BSA and acetic acid. However, the use of MHB-II is favorable to imitate the in vivo conditions as much as possible. Both media were tested with and without the addition of BSA and acetic acid by trial and error. The use of pure MHB-II was compatible with S3(B) and its fatty acid analogues, and therefore was chosen for the MIC determinations. Noticeably, MHB-I with BSA and acetic acid led to precipitation of lipopeptides in the present work.
Cation-adjusted Mueller-Hinton broth (MHB-II) media (BD BBLTM Beef extract powder, BD BactoTMCasamino acids, and DIFCO soluble starch was from Becton, Dickinson and Company©, Franklin Lakes, NJ, USA). MHB media supplemented with 0.2% BSA was from Sigma Aldrich (St. Louis, MO, USA) and 0.01% acetic acid from VWR®. The 96 well plate cell-culture cluster, round-bottom, polypropylene plates, and V-shaped 96 well polypropylene plates were purchased from Corning® Inc., Costar®, Corning, NY, USA. Microseal® film was obtained from Bio-Rad Laboratories, Inc., Hercules, CA, USA. A VersaMaxTM Tunable Microplate Reader (Molecular Devices LLC, Sunnyvale, CA, USA) was used and the data were evaluated on a Softmax® Pro (Molecular Devices LLC).
The MIC experiments were performed according to a protocol adapted from Wiegand et al., with minor modifications. The MICs were determined in triplicate. The peptides were dissolved in Milli-Q water to produce 10 mg/mL stock solutions in small glass containers. The bacterial isolates to be tested were streaked onto agar plates to obtain single colonies, and the plates were incubated at 37 °C for 18–24 h. The strains tested were S. aureus ATCC 29213, P. aeruginosa ATCC 27853, E. coli ATCC 25922, A. baumannii ATCC 19606, and K. pneumonia ATCC 13883. Test compounds were prepared in 2-fold dilutions in 50 μL volumes in polypropylene microtiter plates. Bacterial cultures grown to OD600 = 0.1–0.4 were diluted to a desired OD600 of 0.001–0.002 corresponding to 1 × 10^6 CFU/mL. Next, 50 μL bacterial suspension was added to the microtiter plates, giving a final bacterial inoculum of 5 × 10^5 CFU/mL per well. The plates were incubated at 37 °C for 18–24 h. […] The MIC values were visually evaluated, and the MIC was set to the lowest concentration […] based on triplicate measurements. […]

P. aeruginosa ATCC 27853 = system: P. aeruginosa ATCC 27853
Method: The MIC constitutes a limited measure for antimicrobial activity. It indicates whether or not AMPs in different concentrations are able to prevent visible growth of bacteria.
Time-kill experiments were performed on balanced exponentially growing cultures of P. aeruginosa ATCC 27853. We used balanced cultures as described in Oddo et al.. Briefly, overnight cultures were prepared in MHB-II broth at 37 °C with shaking. Overnight cultures were back-diluted and grown exponentially for no less than 8–10 generations before experimentation. When experiments were done, exponentially growing cultures were back-diluted to an OD600 = 0.0005 approximately 5 × 10^5 CFU, into fresh MHB-II heated to 37 °C. Samples (250 μL) were taken at time points 0, 1, 3, 5, and 24 h. Samples were spun down at 8000× g for 5 min and washed in 1 mL of NaCl 0.9% before being spun down again and re-suspended in 250 μL NaCl 0.9%. From this, 10-fold dilution series were prepared and 10 μL samples were spot-plated in triplicate onto LB-agar. From the undiluted sample, 100 μL samples were also plated, i.e., giving a detection limit of 10 CFU/mL.

CCCCCCCC(=O)NCC[C@@H]1NC(=O)[C@H](CCN)NC(=O)[C@H](CCCNC(=N)N)NC(=O)[C@H](Cc2ccc3ccccc3c2)NC(=O)[C@H](CCN)NC(=O)[C@H](CC(N)=O)NC(=O)[C@H](CCN)NC(=O)[C@H](Cc2ccc3ccccc3c2)NC(=O)COCCOCCNC1=O [(C8)^5] (cyclo([Dab][2Nal]R[Dab][Dab](Octanoyl)[AEEA][2Nal][Dab]N))
Minimum inhibitory concentration, AB (A. baumannii ATCC 19606): 16 µg/mL (≈ 12 µM)
Minimum inhibitory concentration, KP (K. pneumonia ATCC 13883): >64 µg/mL
bacterial cell count over the first 5 h (P. aeruginosa ATCC 27853; 1 × MIC (8 μg/mL), 0–5 h, MHB-II, 37 °C): did not change
log reduction of cell count within first hour of treatment (P. aeruginosa ATCC 27853; 5 × MIC ((C8)^5 40 μg/mL; colistin 2.5 μg/mL), 1 h, MHB-II, 37 °C, shaking, n = 3): 4.5 log
cell count / growth after 24 h (P. aeruginosa ATCC 27853; 5 × MIC ((C8)^5 40 μg/mL; colistin 2.5 μg/mL), 24 h, detection limit 10 CFU/mL): 10^4 CFU/mL
killing of the bacteria in the original inoculum (P. aeruginosa ATCC 27853; ATCC 27853, 1 h, 40 μg/mL): > 99.9%
